# Test results from patent publication US7259004B1, “Endophytic streptomycetes from higher plants with biological activity” (Montana State University, priority 2002, dated 2007).
# Tests used:
# [1] = test system: Enterococcus faecalis ATCC 51299; assay: disk diffusion assay; type: cell-based; conditions: A3-5-1 10 micrograms; Chloramphenicol 30 micrograms; MHA 35° C.
# [2] = test system: Human Cervical Cancer Epithelial ME180; assay: CellTiter 96 Aqueous Non-Radioactive Cell Proliferation Assay; type: cell-based; conditions: Homo sapiens, ME-180; 48 hours; Table 7; read-out: IC50 Human Cervical Cancer Epithelial ME180
# Experimental: (§1) The munumbicins were then tested against three human cancer cell lines (ATCC) and human primary mammary epithelial cells (HMECs) (Clonetics; Biowhittaker, Walkersville, Md.) using a CellTiter 96® Aqueous Non-Radioactive Cell Proliferation Assay kit from Promega (Madison, Wis.). The cell lines were A-549 (lung epithelial carcinoma, ATCC CCL-185), ME-180 (cervical epithelial epidermoid carcinoma, ATCC HTB-33), and BT-20 (breast epithelial cancer, ATCC HTB-19), and were grown in the media recommended by ATCC. The primary mammary cells were cultured as recommended by the manufacturer in mammary epithelial cell growth media (MEGM®). […] After seeding, the cells were incubated for five hours at 37° C. before addition of the munumbicins. Two-fold serial dilutions of the munumbicins were made in the culture medium, and a volume equal to that of the seeded cells for each dilution was added to three wells of cells. Each plate also contained some wells with cells plus medium only and some wells with medium only. […] The A-549 and ME-180 cells were incubated for 48 hours. […] The plates were incubated at 37° C. for one to four hours, and the OD490 was determined. The OD reading of all wells was corrected for background by subtracting the reading of wells containing medium only. […] Kakadumycin A was tested against three human cancer cell lines (ATCC) and human primary mammary epithelial cells using the procedure described above for the munumbicins. Kadadumycin B was tested against one human cancer cell line.
# [3] = test system: Human Lung Cancer Epithelial A549; assay: as above; type: cell-based; conditions: Homo sapiens, A549; 48 hours; Table 7; read-out: IC50 Human Lung Cancer Epithelial A549
# Experimental: as §1
# [4] = test system: DNA synthesis in Bacillus subtilis; assay: macromolecular synthesis whole cell assay, [3H]thymidine incorporation; type: cell-based; conditions: 1×MIC
# [5] = test system: Eschericia coli ATCC 10536; assay: disk diffusion assay; conditions: A3-5-1 10 micrograms; Chloramphenicol 30 micrograms; MHA 35° C.
# S. epidermis ATCC 12228 = assay: disk diffusion assay; type: cell-based, Staphylococcus epidermidis; conditions: MHA 35° C.
# [6] = test system: Streptococcus pneumoniae ATCC 49619; assay: disk diffusion assay; type: cell-based; conditions: A3-5-1 10 micrograms; Chloramphenicol 30 micrograms; MHA w/5% dsb 35° C. w/5% CO2
# [7] = test system: Neiseseria gonorrhoeae ATCC 49266; assay: disk diffusion assay; conditions: A3-5-1 10 micrograms; Chloramphenicol 30 micrograms; GCA w/ 1% supplement in 5% CO2
# [8] = test system: Enterococcus faecium ATCC 49624; assay: disk diffusion assay; type: cell-based; conditions: for Disk Diffusion, Enterococcus faecium 49624: MHA 35° C.
# [9] = test system: Enterococcus faecium ATCC 51559; assay: disk diffusion assay; type: cell-based; conditions: 10 micrograms per disk; ciprofloxacin 5, vancomycin 30 micrograms per disk; 35° C.
# [10] = test system: Salmonella typhimurium ATCC 13311; assay: disk diffusion assay; conditions: MHA 35° C.
# [11] = test system: Staphylococcus aureus (GISA) ATCC 700699; assay: disk diffusion assay; conditions: MHA 35° C.
# [12] = test system: Staphylococcus aureus ATCC 29213; assay: disk diffusion assay; type: cell-based; conditions: MHA 35° C.
# [13] = test system: Staphylococus aureus (GISA) ATCC 700787; assay: disk diffusion assay; conditions: A3-5-1 10 micrograms; Chloramphenicol 30 micrograms; MHA 35° C.
# [14] = test system: Acinetobacter sp. ATCC 49137; assay: disk diffusion assay; type: cell-based; conditions: A3-5-1 10 micrograms; Chloramphenicol 30 micrograms; MHA 35° C.
# [15] = test system: Shigella dysenteriae ATCC 11835; assay: disk diffusion assay; type: cell-based
# [16] = test system: Escherichia coli ATCC 25922; assay: disk diffusion assay; type: cell-based; conditions: MHA 35° C.
# [17] = test system: Micrococcus luteus ATCC 9341; assay: disk diffusion assay; conditions: kakadumycin B at 10 μg; control antibiotic; MHA 35° C.
# [18] = test system: Pseudomonas aeruginosa ATCC 27853; assay: disk diffusion assay; type: cell-based; conditions: A3-5-1 10 micrograms; Chloramphenicol 30 micrograms; MHA 35° C.
# B. subtilis 1A757 = assay: microbe, parasite or virus in culture; type: cell-based, Bacillus subtilis
# [19] = test system: Eschericia coli ATCC 35218; assay: disk diffusion assay; conditions: A3-5-1 10 micrograms; Chloramphenicol 30 micrograms; MHA 35° C.
# [20] = test system: Protein synthesis in Bacillus subtilis; assay: macromolecular synthesis whole cell assay, [3H]amino acid mixture incorporation; type: cell-based; conditions: 1×MIC
# [21] = test system: Haemophilus influenzae ATCC 49247; assay: disk diffusion assay; conditions: A3-5-1 10 micrograms; Chloramphenicol 30 micrograms; HTM 35° C. with 5% CO2
# [22] = test system: Enterococcus faecalis ATCC 29212; assay: disk diffusion assay; type: cell-based; conditions: MHA 35° C.
# [23] = test system: S. maltophilia ATCC 13637; assay: disk diffusion assay; type: cell-based, Stenotrophomas maltophilia; conditions: MHA 35° C.
# [24] = A3-5-1 10 micrograms, Chloramphenicol 30 micrograms
# [25] = kakadumycin B at 10 μg, control antibiotic
compound,measurement,setting,value
"O=C(N[C@H](CO)[C@H](O)c1ccc([N+](=O)[O-])cc1)C(Cl)Cl [Chloramphenicol, reference compound]","Disk Diffusion, Enterococcus faecalis (VRE) 51299",[1],8 mm
same,IC50,[2],> 40 µg/mL
same,IC50,[3],> 40 µg/mL
same,% [3H]thymidine (DNA synthesis) incorporation of that of the untreated culture,[4]; 5 min,58%
same,% [3H]thymidine (DNA synthesis) incorporation of that of the untreated culture,[4]; 10 min,44%
same,"Disk Diffusion, Eschericia coli 10536",[5],28 mm
same,"Disk Diffusion, Staphylococcus epidermidis 12228",S. epidermis ATCC 12228; [24],30 mm
same,"Disk Diffusion, Staphylococcus epidermidis 12228",S. epidermis ATCC 12228; [25],31 mm
same,"Disk Diffusion, Streptococcus pneumoniae 49619",[6],22 mm
same,"Disk Diffusion, Neiseseria gonorrhoeae 49266",[7],33 mm
same,"diameter of the zone of inhibition, Enterococcus faecium ATCC 49624","[8]; 10 micrograms per disk, ciprofloxacin 5, vancomycin 30 micrograms per disk, 35° C.",24 mm
same,"Disk Diffusion, Enterococcus faecium 49624",[8]; [24],25 mm
same,"Disk Diffusion, Enterococcus faecium 49624",[8]; [25],20 mm
same,"diameter of the zone of inhibition, Enterococcus faecium ATCC 51559",[9],24 mm
same,"Disk Diffusion, Salmonella typhimurium 13311",[10]; [24],28 mm
same,"Disk Diffusion, Salmonella typhimurium 13311",[10]; [25],28 mm
same,"Disk Diffusion, Staphylococcus aureus (GISA) 700699",[11]; [24],26 mm
same,"Disk Diffusion, Staphylococcus aureus (GISA) 700699",[11]; [25],29 mm
same,"Disk Diffusion, Staphylococcus aureus 29213",[12]; [24],25 mm
same,"Disk Diffusion, Staphylococcus aureus 29213",[12]; [25],19 mm
same,"Disk Diffusion, Staphylococus aureus (GISA) 700787",[13],29 mm
same,"Disk Diffusion, Acinetobacter spp. 49137",[14],8 mm
same,"diameter of the zone of inhibition, Shigella dysenteriae ATCC 11835","[15]; 10 micrograms per disk, 35° C.",11 mm
same,"Disk Diffusion, Shigella dysenteriae 11835","[15]; A3-5-1 10 micrograms, Chloramphenicol 30 micrograms, MHA 35° C.",40 mm
same,"Disk Diffusion, Eschericia coli 25922",[16]; [24],29 mm
same,"Disk Diffusion, Escherichia coli 25922",[16]; [25],26 mm
same,"Disk Diffusion, Micrococcus luteus 9341",[17],29 mm
same,"Disk Diffusion, Pseudomonas aeruginosa 27853",[18],R
same,1×MIC against Bacillus subtilis,B. subtilis 1A757,4 micrograms/ml
same,"Disk Diffusion, Eschericia coli 35218",[19],R
same,% [3H]amino acid mixture (Protein synthesis) incorporation of that of the untreated culture,[20]; 5 min,44%
same,% [3H]amino acid mixture (Protein synthesis) incorporation of that of the untreated culture,[20]; 10 min,36%
same,"Disk Diffusion, Haemophilus influenzae 49247",[21],23 mm
same,"Disk Diffusion, Enterococcus faecalis 29212",[22]; [24],20 mm
same,"Disk Diffusion, Enterococcus faecalis 29212",[22]; [25],20 mm
same,"Disk Diffusion, Stenotrophomas maltophilia 13637",[23]; [24],28 mm
same,"Disk Diffusion, Stenotrophomas maltophilia 13637",[23]; [25],25 mm
